ChEMBL document CHEMBL1201862, “PubChem BioAssay data set” (2004)
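Following 48 hours of exposure in 96-well plates, responses at five concentrations were used to interpolate endpoints linearly. The concentration for 50% growth inhibition is given as GI50.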 Activity calls are given as the source filed them. Cut-off read from the data, not from the text of the source: active = GI50 up to about 1.1 µM and inactive = higher.

Columns and labels:
Assay in all cases: inhibition of tumour cell growth, NCI panel, 48 h
[1] = system: HCT-116
[2] = system: SR
[3] = system: OVCAR-5
[4] = system: MOLT-4
[5] = system: CAKI-1
[6] = system: DMS-114
[7] = system: NCI-H522
[8] = system: SW-620
[9] = system: U-251
[10] = system: HCC 2998
[11] = system: CCRF-CEM
[12] = system: ACHN
[13] = system: OVCAR-4
[14] = system: A549
[15] = system: NCI-H23
[16] = system: UACC-257
[17] = system: T47D
[18] = system: BT-549
[19] = system: DU-145
[20] = system: LOX IMVI

Measured: GI50

COc1ccc(CCc2cc(OC)c(O)c(OC)c2)cc1
inactive: [1] 59 µM | [2] 37.3 µM | [3] 44 µM | [4] 35.7 µM | [5] 42 µM | [6] 29 µM | [7] 29.7 µM | [8] 37.4 µM | [9] 41.8 µM | [10] 52 µM | [11] 77.1 µM | [12] 80.5 µM | [13] 81.5 µM | [14] 47.1 µM | [15] 37.2 µM | [16] 29.3 µM

CCCCC1CC(c2ccc(Cl)cc2)=NO1 (configuration not stated)
inactive: [1] > 100 µM | [2] > 100 µM | [3] > 100 µM | [4] > 100 µM | [5] > 100 µM | [6] > 100 µM | [7] > 100 µM | [8] > 100 µM | [9] > 100 µM | [10] > 100 µM | [11] > 100 µM | [12] > 100 µM | [13] > 100 µM | [14] > 100 µM | [15] > 100 µM | [16] > 100 µM

COc1cc(/C=C2\C[C@H]3[C@@H]4CC=C5C=C(N6CCCC6)CC[C@]5(C)[C@H]4CC[C@]3(C)C2=O)cc(OC)c1OC
inactive: [1] 1.91 µM | [2] 1.44 µM | [3] 7.1 µM | [4] 2.05 µM | [17] 1.94 µM | [5] 2.84 µM | [18] 2.12 µM | [7] 1.43 µM | [8] 3.91 µM | [9] 1.96 µM | [10] 1.93 µM | [11] 2.82 µM | [19] 3.44 µM | [12] 2.32 µM | [13] 1.75 µM | [14] 5.24 µM | [15] 2.52 µM | [16] 3.1 µM | [20] 1.48 µM

O=C1CSC(c2ccccc2[N+](=O)[O-])N1c1ccc(-n2c(-c3ccccc3)nc3ccccc3c2=O)cc1 (configuration not stated)
inactive: [1] 37.8 µM | [2] 19.8 µM | [3] > 100 µM | [4] 16.6 µM | [17] 23.7 µM | [5] 67.9 µM | [18] 57.7 µM | [7] 22.4 µM | [8] 64.3 µM | [9] 17.7 µM | [10] 46.5 µM | [11] 41.1 µM | [19] > 100 µM | [12] 61 µM | [13] 23.4 µM | [14] 63.2 µM | [15] > 100 µM | [16] > 100 µM | [20] 28.6 µM

CC#CC1C2CCCC1(CSc1ccccc1)NC(=O)O2 (configuration not stated)
inactive: [1] > 100 µM | [2] > 100 µM | [3] > 100 µM | [4] 30.3 µM | [5] > 100 µM | [6] > 100 µM | [7] > 100 µM | [8] > 100 µM | [9] > 100 µM | [10] > 100 µM | [12] > 100 µM | [13] > 100 µM | [14] > 100 µM | [15] > 100 µM | [16] > 100 µM

O=C1Nc2ccccc2/C1=N/Nc1ccc([N+](=O)[O-])cc1[N+](=O)[O-]
inactive: [1] 17.9 µM | [2] 25.6 µM | [3] 12.6 µM | [4] > 100 µM | [17] 15.7 µM | [5] 20.4 µM | [18] 12.1 µM | [7] 12.9 µM | [8] > 100 µM | [9] 8.87 µM | [10] 11.6 µM | [11] > 100 µM | [19] 7.82 µM | [12] 7.08 µM | [13] 10 µM | [14] 12.5 µM | [15] 12.4 µM | [16] 8.49 µM | [20] 6.78 µM

COC(=O)C1C(O)CCC2CN3CCc4c([nH]c5cccc(OC)c45)C3CC21 (configuration not stated)
inactive: [1] > 100 µM | [2] > 100 µM | [3] > 100 µM | [4] > 100 µM | [17] > 100 µM | [5] > 100 µM | [18] > 100 µM | [7] > 100 µM | [8] > 100 µM | [9] > 100 µM | [10] > 100 µM | [11] > 100 µM | [19] > 100 µM | [12] > 100 µM | [13] > 100 µM | [14] > 100 µM | [15] > 100 µM | [16] > 100 µM | [20] > 100 µM

O=C(c1ccc(Cl)cc1Cl)N(/N=C/C=C/c1ccccc1)c1nnc(-c2ccccc2)c(-c2ccccc2)n1
inactive: [3] > 100 µM | [4] 70 µM | [6] > 100 µM | [7] 21.8 µM | [8] > 100 µM | [9] > 100 µM | [10] > 100 µM | [11] > 100 µM | [12] > 100 µM | [13] > 100 µM | [14] > 100 µM | [15] > 100 µM | [16] > 100 µM | [20] > 100 µM
